Results published in patent publication US20090312423A1, “THERAPEUTIC TREATMENT FOR LUNG CONDITIONS” (Vanderbilt University, priority 2008, published 2009).

What was measured:
[1] = test system: chronically hypoxic piglets; assay: In vivo hemodynamics in newborn piglets exposed to 10 days of chronic hypoxia
Description: A total of 17 hypoxic and 17 control piglets were studied. Control animals were studied on the day of arrival from the farm at 12 days of age. The hypoxic pigs (2 days old) were placed in a normobaric hypoxic chamber for 10 to 11 days. Normobaric hypoxia was provided using compressed air and nitrogen to create inspired oxygen of 8-11% (PO2 60-72 Torr) and CO2 was maintained at 3-6 Torr by absorption with soda lime. The animals were monitored with daily weights and physical exam twice daily. They were fed ad lib with sow milk replacer from a feeding device in the cage.
Six of the seventeen hypoxic piglets were supplemented with oral L-citrulline starting on the first day of the hypoxic exposure. L-citrulline supplementation was provided at a dose of 0.13-gm/kilogram body weight twice a day using a syringe to deliver the dose orally. If it appeared to study personnel that the piglet had not ingested the majority of a dose, it was repeated. L-citrulline was mixed using a preparation (Sigma Pharmaceuticals, St. Louis, Mo., United States of America, 98% purity) at a concentration of 0.13 grams per milliliter of distilled water and when completely dissolved passing this solution through a 0.20 Micron filter.
In vivo hemodynamics were measured in 6 of the control piglets and all of the hypoxic piglets. […] Pulmonary artery pressure, left ventricular end diastolic pressure, and cardiac output were measured. Cardiac output was measured by a thermodilution technique (model 9520 thermodilution cardiac output computer, Edwards Laboratory, Irvine, Calif., United States of America) using a thermistor in the aortic arch and the left ventricle catheter as an injection port. Cardiac output was measured at end expiration as the mean of three injections of 3 ml of normal saline (0° C.). Exhaled NO was measured as described below. […]
Pulmonary vascular resistance was calculated from the in vivo hemodynamic measurements: (Pulmonary arterial pressure−left ventricular end diastolic pressure)÷(Cardiac output/body weight). […]

exhaled NO = assay: Exhaled nitric oxide measurement in anesthetized piglets; format: in vivo; details: FIG. 5; p-value 0.032; not different from control (p=0.124)
Procedure: In vivo hemodynamics were measured in 6 of the control piglets and all of the hypoxic piglets. For these measurements, the animals were weighed and then preanesthetized with Ketamine (15 mg/kg) and Acepromazine (2 mg/kg) intramuscularly. A tracheostomy, venous and arterial catheters, and thermistor were then placed as previously described using intravenous pentobarbital for sedation. Fike, C. D. et al., J Appl Physiol (2000) 88:1797-1803. Pulmonary artery pressure, left ventricular end diastolic pressure, and cardiac output were measured. Cardiac output was measured by a thermodilution technique (model 9520 thermodilution cardiac output computer, Edwards Laboratory, Irvine, Calif., United States of America) using a thermistor in the aortic arch and the left ventricle catheter as an injection port. Cardiac output was measured at end expiration as the mean of three injections of 3 ml of normal saline (0° C.). Exhaled NO was measured as described below. […]
For exhaled NO measurement in anesthetized animals, expiratory gas was sampled two to three times for 3 minute periods each and passed through a chemiluminescence analyzer (model 270B NOA; Sievers, Boulder, Colo., United States of America) to measure NO concentration as previously described. […] Exhaled NO production (nmol/min) was calculated using minute ventilation and the measured exhaled NO concentration.

nitrite/nitrate (NOx-) = assay: Isolated lung perfusion, perfusate NOx- measurement; format: in vivo, piglets; details: FIG. 6; p=0.04; no difference from normoxic controls
Procedure: The lungs were isolated and perfused in situ with a Krebs Ringer bicarbonate (KRB) solution containing 5% dextran, mol. wt. 70,000, at 37° C. and ventilated with a normoxic gas mixture (21% O2 and 5% CO2) as previously described. Fike, C. D. et al., J Appl Physiol (2000) 88:1797-1803. The lungs were perfused for 30-60 min until a stable pulmonary arterial pressure was achieved. Perfusate samples (1 ml) were then removed from the left atrial cannula every 10 min for a 60-minute period. The perfusate samples were centrifuged, and the supernatant was stored at −80° C. for future analysis of nitrite/nitrate (NOx^−) concentrations as described below. At the end of the perfusion, the volume of perfusate remaining in the circuit and reservoir was measured. […]
The perfusate NOx^− […] was calculated for each collection time by multiplying the perfusate concentration of NOx^− at that sample collection time by the volume of the system (perfusion circuit+reservoir) at the sample collection time plus the amount of NOx^− removed with all previous samples. The rate of NOx^− production was determined from the slope of a linear regression line fit to the amount of NOx^− in the perfusate versus time for the first 60 minutes of the collection period.

[2] = Plasma amino acid measurements; format: in vivo, piglets; details: for Plasma Citrulline: mean ± SEM
Procedure: On the day of hemodynamic measurements and/or lung perfusion study, for control and both L-citrulline treated and untreated chronic hypoxic animals, blood was drawn prior to starting the study and the plasma frozen at -80 degrees for later determination of amino acid levels. For the L-citrulline treated hypoxic animals, the time of obtaining the blood sample was approximately 12 hours after the last dose of L-citrulline so was a trough level. In some of the L-citrulline treated animals (n=3), after blood sampling for a trough level, a dose of L-citrulline was given via nasogastric tube. Following this dose, blood samples were drawn every 30 minutes for 90 minutes (the length of the in vivo studies). All samples were spun, the plasma collected and frozen at -80 degrees for amino acid analysis. Concentrations of plasma citrulline and arginine were determined by amino-acid analysis on protein-free extracts. Amino acids were separated by cation-exchange chromatography using a Hitachi […] amino acid analyzer (Hitachi USA, San Jose, Calif., United States of America). Calibration of the analyzer was performed before testing of piglet samples.

NC(=O)NCCC[C@H](N)C(=O)O [L-citrulline]
pulmonary artery pressure vs untreated hypoxic animals ([1]; FIG. 3, p-value of 0.01, not different from normoxic controls (p=0.08)): significantly lower | calculated pulmonary vascular resistance ([1]; FIG. 4, L-citrulline treated hypoxic animals, significantly lower than untreated hypoxic (p-value of 0.001)): 0.071±0.003 | development of pulmonary hypertension ([1]; newborn piglets exposed to 10 days of chronic hypoxia, oral supplementation): ameliorates the development of pulmonary hypertension | exhaled NO output vs untreated hypoxic animals (exhaled NO): higher | NOx- accumulation rate in lung perfusate vs untreated hypoxic animals (nitrite/nitrate (NOx-)): significantly higher | Plasma Citrulline ([2]; 90 minutes after administration of L-citrulline dose, N = 3): 219 ± 36 | plasma L-citrulline level relative to untreated chronic hypoxic animals ([2]; ninety minutes after a dose, p=0.001): almost twice | plasma arginine levels vs untreated hypoxic animals ([2]; regardless of the time the sample was drawn): not higher | Plasma Citrulline ([2]; trough, approximately twelve hours after L-citrulline dose, N = 6): 161 ± 5
